Assay results: ChEMBL document CHEMBL5291721, “A preclinical secondary pharmacology resource illuminates target-adverse drug reaction associations of marketed drugs” (Nat Commun, 2023)

Tests used:
[1] = target: T1, Sodium-dependent serotonin transporter (Homo sapiens, UniProt P31645)
[2] = target: D(1A) dopamine receptor (Homo sapiens, UniProt P21728)
[3] = target: Sodium-dependent dopamine transporter (Homo sapiens, UniProt Q01959)
[4] = target: T2, Cannabinoid receptor 1 (Homo sapiens, UniProt P21554); format: functional, cell-based
[5] = target: Beta-2 adrenergic receptor (Homo sapiens, UniProt P07550); format: functional, cell-based
[6] = target: Muscarinic acetylcholine receptor M3 (Homo sapiens, UniProt P20309)
[7] = target: T3, Thromboxane A2 receptor (Homo sapiens, UniProt P21731); format: functional, cell-based
T3 sequence (P21731 whole entry): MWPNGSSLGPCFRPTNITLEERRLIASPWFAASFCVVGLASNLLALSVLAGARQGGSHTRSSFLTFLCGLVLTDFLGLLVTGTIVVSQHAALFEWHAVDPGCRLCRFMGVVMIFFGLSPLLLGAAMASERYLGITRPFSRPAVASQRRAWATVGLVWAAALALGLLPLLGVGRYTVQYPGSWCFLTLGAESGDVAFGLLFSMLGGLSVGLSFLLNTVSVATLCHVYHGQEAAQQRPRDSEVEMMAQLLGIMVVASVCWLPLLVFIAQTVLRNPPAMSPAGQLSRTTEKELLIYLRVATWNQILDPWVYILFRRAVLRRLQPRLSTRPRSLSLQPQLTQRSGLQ

[8] = target: Prostaglandin G/H synthase 1 (Homo sapiens, UniProt P23219); format: functional
[9] = target: T2, Cannabinoid receptor 1
[10] = target: Histamine H3 receptor (Homo sapiens, UniProt Q9Y5N1)
[11] = target: T1, Sodium-dependent serotonin transporter; remark: listed apart in the source
[12] = target: T4, Endothelin-1 receptor (Homo sapiens, UniProt P25101)
T4 sequence (P25101 whole entry): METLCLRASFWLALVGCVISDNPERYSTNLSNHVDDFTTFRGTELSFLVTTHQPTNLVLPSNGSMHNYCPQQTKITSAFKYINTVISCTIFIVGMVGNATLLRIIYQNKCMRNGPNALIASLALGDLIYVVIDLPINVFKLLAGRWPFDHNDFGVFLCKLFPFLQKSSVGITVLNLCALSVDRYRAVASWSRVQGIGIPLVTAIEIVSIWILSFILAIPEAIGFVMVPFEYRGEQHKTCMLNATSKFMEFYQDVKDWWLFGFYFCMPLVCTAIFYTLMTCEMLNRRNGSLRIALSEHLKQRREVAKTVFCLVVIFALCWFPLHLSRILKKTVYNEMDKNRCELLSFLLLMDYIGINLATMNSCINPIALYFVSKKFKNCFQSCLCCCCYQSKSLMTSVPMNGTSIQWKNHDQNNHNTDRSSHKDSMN

[13] = target: Beta-1 adrenergic receptor (Homo sapiens, UniProt P08588); format: functional
[14] = target: T5, B2 bradykinin receptor (Homo sapiens, UniProt P30411)
T5 sequence (P30411 whole entry): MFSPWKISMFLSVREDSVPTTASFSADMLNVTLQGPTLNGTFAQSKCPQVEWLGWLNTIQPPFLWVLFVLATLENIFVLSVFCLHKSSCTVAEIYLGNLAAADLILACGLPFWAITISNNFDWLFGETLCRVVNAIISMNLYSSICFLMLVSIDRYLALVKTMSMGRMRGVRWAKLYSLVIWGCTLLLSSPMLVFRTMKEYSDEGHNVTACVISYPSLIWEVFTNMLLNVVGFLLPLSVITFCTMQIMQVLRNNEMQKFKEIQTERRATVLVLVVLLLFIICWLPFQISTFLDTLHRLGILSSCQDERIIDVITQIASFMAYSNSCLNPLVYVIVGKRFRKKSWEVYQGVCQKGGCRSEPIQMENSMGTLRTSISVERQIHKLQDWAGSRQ

[15] = target: T6, Muscarinic acetylcholine receptor M1 (Homo sapiens, UniProt P11229); format: functional, cell-based
T6 sequence (P11229 whole entry): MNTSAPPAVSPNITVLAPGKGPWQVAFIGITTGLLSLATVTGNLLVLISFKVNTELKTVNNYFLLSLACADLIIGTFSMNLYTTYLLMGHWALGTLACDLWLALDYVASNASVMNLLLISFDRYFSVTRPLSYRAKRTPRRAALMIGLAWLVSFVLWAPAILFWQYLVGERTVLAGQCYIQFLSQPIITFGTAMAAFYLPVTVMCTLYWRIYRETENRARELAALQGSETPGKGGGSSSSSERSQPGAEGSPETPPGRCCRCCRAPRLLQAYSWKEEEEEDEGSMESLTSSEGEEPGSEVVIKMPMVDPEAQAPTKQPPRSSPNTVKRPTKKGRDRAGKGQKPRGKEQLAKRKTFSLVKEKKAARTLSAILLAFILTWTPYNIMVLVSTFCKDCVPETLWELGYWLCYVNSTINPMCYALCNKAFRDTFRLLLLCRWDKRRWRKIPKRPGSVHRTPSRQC
Further: assay procedure not described here.

Chain of Beta-2 adrenergic receptor (P07550 whole entry): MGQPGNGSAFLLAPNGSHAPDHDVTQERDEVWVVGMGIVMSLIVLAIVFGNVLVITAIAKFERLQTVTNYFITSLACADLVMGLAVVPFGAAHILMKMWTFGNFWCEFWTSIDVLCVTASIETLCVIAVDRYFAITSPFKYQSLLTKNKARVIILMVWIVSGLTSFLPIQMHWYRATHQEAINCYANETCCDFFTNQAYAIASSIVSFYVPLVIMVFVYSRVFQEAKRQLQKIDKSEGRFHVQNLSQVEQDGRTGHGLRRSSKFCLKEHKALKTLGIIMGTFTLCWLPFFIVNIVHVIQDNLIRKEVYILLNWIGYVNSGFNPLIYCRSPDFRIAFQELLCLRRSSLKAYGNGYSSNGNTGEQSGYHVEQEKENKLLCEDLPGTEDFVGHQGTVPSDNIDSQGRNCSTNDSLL
T1 sequence (P31645 whole entry): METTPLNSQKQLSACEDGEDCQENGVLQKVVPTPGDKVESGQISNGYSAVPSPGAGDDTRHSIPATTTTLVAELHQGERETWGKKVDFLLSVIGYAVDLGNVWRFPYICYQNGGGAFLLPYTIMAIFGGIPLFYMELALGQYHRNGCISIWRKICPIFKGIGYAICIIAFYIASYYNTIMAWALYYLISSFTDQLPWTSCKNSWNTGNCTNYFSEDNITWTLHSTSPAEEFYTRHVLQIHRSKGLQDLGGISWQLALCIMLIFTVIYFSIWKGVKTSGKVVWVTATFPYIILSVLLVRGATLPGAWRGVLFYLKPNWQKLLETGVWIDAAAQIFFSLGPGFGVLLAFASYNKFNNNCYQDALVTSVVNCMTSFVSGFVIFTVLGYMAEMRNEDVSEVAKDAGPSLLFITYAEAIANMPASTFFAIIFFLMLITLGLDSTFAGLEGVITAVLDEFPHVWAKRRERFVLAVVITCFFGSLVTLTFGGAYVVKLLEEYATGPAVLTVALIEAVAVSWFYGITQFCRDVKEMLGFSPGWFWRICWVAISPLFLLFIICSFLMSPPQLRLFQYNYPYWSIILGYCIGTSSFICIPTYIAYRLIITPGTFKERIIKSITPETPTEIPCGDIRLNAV
T2 sequence (P21554 whole entry): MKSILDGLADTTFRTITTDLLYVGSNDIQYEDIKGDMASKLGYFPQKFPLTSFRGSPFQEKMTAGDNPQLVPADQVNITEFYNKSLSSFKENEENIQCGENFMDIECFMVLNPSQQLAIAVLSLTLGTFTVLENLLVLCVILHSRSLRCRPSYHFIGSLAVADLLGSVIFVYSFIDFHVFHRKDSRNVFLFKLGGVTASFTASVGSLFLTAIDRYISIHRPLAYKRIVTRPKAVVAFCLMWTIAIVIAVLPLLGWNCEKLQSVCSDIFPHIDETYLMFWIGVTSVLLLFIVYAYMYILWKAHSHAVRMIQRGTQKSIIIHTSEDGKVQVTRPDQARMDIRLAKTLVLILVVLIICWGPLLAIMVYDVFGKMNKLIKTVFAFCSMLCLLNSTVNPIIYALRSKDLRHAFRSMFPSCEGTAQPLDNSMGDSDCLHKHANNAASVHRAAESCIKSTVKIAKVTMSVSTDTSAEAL
Chain of Muscarinic acetylcholine receptor M3 (P20309 whole entry): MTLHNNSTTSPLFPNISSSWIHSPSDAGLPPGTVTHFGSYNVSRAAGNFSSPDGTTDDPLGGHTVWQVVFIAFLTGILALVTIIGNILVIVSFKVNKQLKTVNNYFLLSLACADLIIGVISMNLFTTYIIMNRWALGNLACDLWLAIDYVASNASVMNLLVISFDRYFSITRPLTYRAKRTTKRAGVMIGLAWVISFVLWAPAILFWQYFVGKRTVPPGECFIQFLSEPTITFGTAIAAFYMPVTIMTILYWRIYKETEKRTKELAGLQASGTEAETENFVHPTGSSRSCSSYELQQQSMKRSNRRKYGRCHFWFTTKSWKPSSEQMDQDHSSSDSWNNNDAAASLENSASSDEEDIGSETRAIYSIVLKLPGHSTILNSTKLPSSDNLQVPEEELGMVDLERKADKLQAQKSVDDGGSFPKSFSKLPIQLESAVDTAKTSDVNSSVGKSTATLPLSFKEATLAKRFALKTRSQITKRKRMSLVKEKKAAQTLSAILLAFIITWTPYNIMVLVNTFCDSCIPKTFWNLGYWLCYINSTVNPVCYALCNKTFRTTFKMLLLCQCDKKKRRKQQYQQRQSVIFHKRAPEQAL
Chain of Sodium-dependent dopamine transporter (Q01959 whole entry): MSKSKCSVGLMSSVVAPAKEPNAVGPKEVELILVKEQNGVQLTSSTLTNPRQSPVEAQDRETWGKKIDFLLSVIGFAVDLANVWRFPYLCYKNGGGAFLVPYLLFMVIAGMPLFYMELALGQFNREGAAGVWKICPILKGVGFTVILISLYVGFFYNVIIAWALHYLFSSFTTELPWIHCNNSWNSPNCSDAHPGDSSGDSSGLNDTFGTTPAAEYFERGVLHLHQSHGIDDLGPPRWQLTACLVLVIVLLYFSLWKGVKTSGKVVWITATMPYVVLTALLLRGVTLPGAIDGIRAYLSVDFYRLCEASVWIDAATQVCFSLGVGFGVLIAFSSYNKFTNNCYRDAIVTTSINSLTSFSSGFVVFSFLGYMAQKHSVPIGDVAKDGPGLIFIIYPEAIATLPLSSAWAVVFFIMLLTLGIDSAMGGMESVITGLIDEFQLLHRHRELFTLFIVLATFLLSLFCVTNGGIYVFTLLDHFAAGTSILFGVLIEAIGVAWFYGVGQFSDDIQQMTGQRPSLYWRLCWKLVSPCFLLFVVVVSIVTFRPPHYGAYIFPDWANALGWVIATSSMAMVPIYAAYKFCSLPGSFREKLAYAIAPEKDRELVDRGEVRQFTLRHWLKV
Chain of Prostaglandin G/H synthase 1 (P23219 whole entry): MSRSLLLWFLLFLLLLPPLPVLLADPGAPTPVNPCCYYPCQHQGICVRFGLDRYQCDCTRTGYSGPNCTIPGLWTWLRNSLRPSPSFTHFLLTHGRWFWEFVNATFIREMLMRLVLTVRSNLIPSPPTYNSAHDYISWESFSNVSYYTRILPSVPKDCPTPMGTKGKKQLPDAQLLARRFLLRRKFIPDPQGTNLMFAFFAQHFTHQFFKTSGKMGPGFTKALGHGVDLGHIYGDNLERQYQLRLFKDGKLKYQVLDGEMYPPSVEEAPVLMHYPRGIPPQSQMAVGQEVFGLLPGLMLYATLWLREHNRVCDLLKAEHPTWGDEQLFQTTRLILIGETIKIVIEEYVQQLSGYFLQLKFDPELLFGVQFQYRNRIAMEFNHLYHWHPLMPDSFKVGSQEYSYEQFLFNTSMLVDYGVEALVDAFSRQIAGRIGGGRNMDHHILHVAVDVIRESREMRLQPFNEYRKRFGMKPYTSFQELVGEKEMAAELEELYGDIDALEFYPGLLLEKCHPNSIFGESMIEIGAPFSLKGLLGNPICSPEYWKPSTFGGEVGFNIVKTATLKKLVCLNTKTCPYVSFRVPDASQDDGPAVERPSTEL
Chain of D(1A) dopamine receptor (P21728 whole entry): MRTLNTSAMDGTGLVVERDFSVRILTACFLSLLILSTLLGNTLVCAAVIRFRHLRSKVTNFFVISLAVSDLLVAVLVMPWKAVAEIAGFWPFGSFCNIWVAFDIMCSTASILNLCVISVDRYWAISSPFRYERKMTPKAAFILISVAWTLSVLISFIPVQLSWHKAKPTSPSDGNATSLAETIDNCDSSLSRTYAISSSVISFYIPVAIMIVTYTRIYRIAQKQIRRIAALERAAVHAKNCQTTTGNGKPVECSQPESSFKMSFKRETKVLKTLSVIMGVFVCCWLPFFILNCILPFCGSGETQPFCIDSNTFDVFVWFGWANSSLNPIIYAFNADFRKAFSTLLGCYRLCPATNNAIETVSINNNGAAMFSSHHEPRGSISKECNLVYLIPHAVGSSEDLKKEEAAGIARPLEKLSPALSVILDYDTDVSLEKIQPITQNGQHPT
Chain of Histamine H3 receptor (Q9Y5N1 whole entry): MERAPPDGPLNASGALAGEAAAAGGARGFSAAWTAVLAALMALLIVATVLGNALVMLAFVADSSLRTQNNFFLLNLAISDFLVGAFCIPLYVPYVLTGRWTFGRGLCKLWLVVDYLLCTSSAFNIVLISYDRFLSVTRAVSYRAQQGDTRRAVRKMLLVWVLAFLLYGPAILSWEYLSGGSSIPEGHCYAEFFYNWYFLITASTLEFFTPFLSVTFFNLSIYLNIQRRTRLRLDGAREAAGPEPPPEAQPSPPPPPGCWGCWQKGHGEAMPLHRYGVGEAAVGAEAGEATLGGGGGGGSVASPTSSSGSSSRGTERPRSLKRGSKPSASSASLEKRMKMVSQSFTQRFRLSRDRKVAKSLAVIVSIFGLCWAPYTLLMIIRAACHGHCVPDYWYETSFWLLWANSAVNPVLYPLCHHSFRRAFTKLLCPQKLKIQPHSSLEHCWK
Chain of Beta-1 adrenergic receptor (P08588 whole entry): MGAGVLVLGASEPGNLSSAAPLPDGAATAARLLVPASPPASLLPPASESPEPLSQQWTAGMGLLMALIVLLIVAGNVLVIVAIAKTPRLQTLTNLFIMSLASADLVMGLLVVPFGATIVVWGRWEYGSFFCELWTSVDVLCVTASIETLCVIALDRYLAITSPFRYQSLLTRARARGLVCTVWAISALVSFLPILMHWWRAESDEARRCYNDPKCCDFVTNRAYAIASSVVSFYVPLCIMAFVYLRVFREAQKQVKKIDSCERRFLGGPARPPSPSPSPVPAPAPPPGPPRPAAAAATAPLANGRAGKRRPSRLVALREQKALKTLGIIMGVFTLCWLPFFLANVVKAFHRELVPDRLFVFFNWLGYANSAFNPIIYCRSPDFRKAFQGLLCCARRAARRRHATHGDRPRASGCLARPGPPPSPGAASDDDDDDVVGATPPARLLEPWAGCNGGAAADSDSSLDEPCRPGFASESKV

| SMILES | AC50 [1] [µM] | AC50 [2] [µM] | AC50 [3] [µM] | AC50 [4] [µM] | AC50 [5] [µM] | AC50 [6] [µM] | AC50 [7] [µM] | AC50 [8] [µM] | AC50 [9] [µM] | AC50 [10] [µM] | AC50 [11] [µM] | AC50 [12] [µM] | AC50 [13] [µM] | AC50 [14] [µM] | AC50 [15] [µM] |
| --- | --- | --- | --- | --- | --- | --- | --- | --- | --- | --- | --- | --- | --- | --- | --- |
| C#CCN(C)Cc1ccccc1 [PARGYLINE] | > 30 | > 30 | > 30 | > 30 | > 30 | > 30 | > 30 | > 30 | – | – | – | – | – | – | – |
| CCN(CC)CCn1c(=O)c(Cc2ccc(OC)cc2)nc2ccccc21 [CAROVERINE] | – | – | – | > 30 | > 30 | > 30 | – | – | > 30 | 2.38 | > 30 | > 30 | > 30 | > 30 | – |
| CC(C)/N=c1\cc2n(-c3ccc(Cl)cc3)c3ccccc3nc-2cc1Nc1ccc(Cl)cc1 [CLOFAZIMINE] | – | – | – | > 30 | > 30 | > 30 | – | – | – | > 30 | 20 | > 30 | > 30 | > 30 | – |
| OCCOCCN1CCN(C(c2ccccc2)c2ccc(Cl)cc2)CC1 (stereo not drawn) [HYDROXYZINE] | – | – | – | > 30 | > 30 | > 10 | – | – | > 10 | > 10 | > 10 | > 30 | > 10 | > 30 | – |
| O=c1[nH]c2ccccc2n1CCN1CCN(c2cccc(C(F)(F)F)c2)CC1 [FLIBANSERIN] | 17.7 | 2.43 | > 30 | – | – | – | > 30 | > 30 | – | – | – | – | – | – | 10.1 |
| CCOC(=O)[C@H](CCc1ccccc1)N[C@@H](C)C(=O)N1Cc2ccccc2C[C@H]1C(=O)O | – | > 30 | > 30 | > 30 | > 30 | – | > 30 | > 30 | > 10 | > 10 | – | > 30 | > 10 | > 30 | – |
| Cc1c(C)c2c(c(C)c1O)CCC(C)(COc1ccc(CC3SC(=O)NC3=O)cc1)O2 (stereo not drawn) [TROGLITAZONE] | – | 8.59 | 8.75 | > 30 | > 30 | – | 17.6 | > 30 | > 30 | > 30 | – | > 30 | 20 | > 30 | – |
| N[C@@H](Cc1cc(I)c(Oc2cc(I)c(O)c(I)c2)c(I)c1)C(=O)O [LEVOTHYROXINE] | – | – | – | > 30 | > 30 | > 30 | – | – | – | > 30 | > 30 | > 30 | > 30 | > 10 | – |
| CN(C)CCOC(c1ccc(Cl)cc1)c1ccccn1 (stereo not drawn) [CARBINOXAMINE] | – | – | – | > 30 | > 30 | > 30 | – | – | – | 3.5 | 3 | > 30 | – | > 30 | – |
| CC(=O)Oc1ccccc1C(=O)O [ASPIRIN] | – | > 30 | > 30 | > 30 | > 30 | – | > 30 | – | > 10 | > 30 | – | > 30 | > 10 | > 30 | – |
| C=CC1=C(C(=O)O)N2C(=O)[C@@H](NC(=O)/C(=N\O)c3csc(N)n3)[C@H]2SC1 | – | – | – | > 30 | > 30 | > 30 | – | – | 15.8 | > 10 | > 30 | – | > 30 | > 30 | – |
| CCOC(=O)Nc1ccc(NCc2ccc(F)cc2)nc1N [FLUPIRTINE] | – | – | – | > 30 | > 30 | > 30 | – | – | – | > 30 | > 30 | > 30 | > 30 | > 30 | – |
| C[C@H](Nc1ncnc2[nH]cnc12)c1cc2cccc(Cl)c2c(=O)n1-c1ccccc1 [DUVELISIB] | > 30 | > 30 | > 30 | > 30 | > 30 | > 30 | > 30 | > 30 | – | > 30 | > 30 | > 30 | > 30 | – | – |
| CN(C)CCCC1(c2ccc(F)cc2)OCc2cc(C#N)ccc21 (stereo not drawn) [CITALOPRAM] | – | – | – | > 30 | > 30 | – | > 30 | > 30 | > 10 | > 10 | – | > 30 | > 10 | > 30 | – |
| C[C@H](CS)C(=O)N1CCC[C@H]1C(=O)O [CAPTOPRIL] | – | – | – | – | > 30 | – | – | – | > 10 | > 10 | – | – | > 10 | > 30 | – |
| Nc1nnc(-c2cccc(Cl)c2Cl)c(N)n1 [LAMOTRIGINE] | – | – | – | > 30 | > 30 | – | – | – | > 10 | > 10 | – | > 30 | > 10 | > 30 | – |
| NC(=O)C1(N2CCCCC2)CCN(CCCN2c3ccccc3CCc3ccccc32)CC1 [CARPIPRAMINE] | 2.73 | 0.0928 | 2.94 | – | – | – | 24.6 | > 30 | – | – | – | – | – | – | 22 |
| O=C(Cc1cccs1)N[C@@H]1C(=O)N2C(C(=O)[O-])=C(C[n+]3ccccc3)CS[C@H]12 [CEPHALORIDINE] | > 30 | > 30 | > 30 | > 30 | > 30 | > 30 | > 30 | > 30 | – | – | – | – | – | – | – |
| NCC1(CC(=O)O)CCCCC1 [GABAPENTIN] | – | > 30 | > 30 | > 30 | > 30 | – | > 30 | > 30 | > 10 | > 30 | – | > 30 | > 30 | > 30 | – |
| CN(C)CCc1c[nH]c2ccc(CS(=O)(=O)N3CCCC3)cc12 [ALMOTRIPTAN] | – | – | – | > 30 | > 30 | > 30 | – | – | – | > 30 | > 30 | > 30 | > 30 | > 30 | – |
| C[C@]12CCC(=O)C=C1CC[C@H]1[C@@H]3CC[C@](O)(C(=O)CO)[C@@]3(C)C[C@H](O)[C@@]12F [FLUDROCORTISONE] | – | – | – | > 30 | > 30 | > 30 | – | – | > 10 | > 10 | > 30 | > 30 | > 10 | > 30 | – |
| O=C1[C@@H]2[C@H]3CC[C@H](C3)[C@@H]2C(=O)N1C[C@@H]1CCCC[C@H]1CN1CCN(c2nsc3ccccc23)CC1 [LURASIDONE] | > 30 | – | – | > 30 | > 30 | – | > 30 | > 30 | – | > 30 | > 30 | > 30 | – | – | – |
| Cn1cnc2c(F)c(Nc3ccc(Br)cc3F)c(C(=O)NOCCO)cc21 [BINIMETINIB] | – | – | – | > 30 | > 30 | > 30 | – | – | – | > 30 | > 30 | > 30 | > 30 | – | – |
